# Measured values as given in ChEMBL document CHEMBL1201862, “PubChem BioAssay data set” (2004).
# Activity calls are given as the source filed them.
# What was measured:
# [1] = target: T1, Neuropeptides B/W receptor type 1 (Homo sapiens, UniProt P48145); test: human NPBW1 receptor blockade, IC50 – cell-based, fluorescence, dose response, set 6, late-stage follow-up (AID 588583); type: functional
# T1 sequence (P48145 whole entry): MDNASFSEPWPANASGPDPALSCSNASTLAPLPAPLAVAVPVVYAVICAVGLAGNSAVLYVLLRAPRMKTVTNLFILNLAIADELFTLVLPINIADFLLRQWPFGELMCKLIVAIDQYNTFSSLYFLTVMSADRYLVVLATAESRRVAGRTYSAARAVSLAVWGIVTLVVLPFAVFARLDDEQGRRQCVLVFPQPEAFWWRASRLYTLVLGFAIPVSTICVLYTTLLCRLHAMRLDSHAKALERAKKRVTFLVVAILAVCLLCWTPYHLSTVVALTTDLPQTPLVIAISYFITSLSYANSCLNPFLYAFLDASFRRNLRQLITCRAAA
# [2] = target: Melanin-concentrating hormone receptor 1 (Homo sapiens, UniProt Q99705); test: Late-stage fluorescence-based counterscreen for antagonists of the G-protein coupled receptor 7 (GPR7): cell-based dose response assay to identify antagonists of the melanin-concentrating hormone receptor 1 (MCHR1) Set 6.; type: functional
# Chain of Melanin-concentrating hormone receptor 1 (Q99705 whole entry): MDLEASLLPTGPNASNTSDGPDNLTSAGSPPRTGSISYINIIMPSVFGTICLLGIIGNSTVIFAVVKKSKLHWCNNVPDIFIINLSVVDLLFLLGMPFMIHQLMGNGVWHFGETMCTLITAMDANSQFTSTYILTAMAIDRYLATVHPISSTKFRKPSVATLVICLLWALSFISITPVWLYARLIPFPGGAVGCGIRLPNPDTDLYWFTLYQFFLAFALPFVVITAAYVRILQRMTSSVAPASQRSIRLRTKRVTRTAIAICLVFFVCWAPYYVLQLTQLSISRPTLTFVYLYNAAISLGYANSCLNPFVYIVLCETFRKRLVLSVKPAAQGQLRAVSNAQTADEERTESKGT
# HEK293 [3] = test: optical interference in Abeta FP readout, dose response, artefact control for IDE activator project, biochemical, fluorescence polarization (AID 588442); type: functional, cell-based; details: Homo sapiens
# Insulin-degrading enzyme [4] = target: T2, Insulin-degrading enzyme (Homo sapiens, UniProt P14735); test: recombinant IDE activation, cell-free – biochemical, fluorescence polarization, counter-screen for IDE activator project, dose response (AID 588681)
# T2 sequence (P14735 whole entry): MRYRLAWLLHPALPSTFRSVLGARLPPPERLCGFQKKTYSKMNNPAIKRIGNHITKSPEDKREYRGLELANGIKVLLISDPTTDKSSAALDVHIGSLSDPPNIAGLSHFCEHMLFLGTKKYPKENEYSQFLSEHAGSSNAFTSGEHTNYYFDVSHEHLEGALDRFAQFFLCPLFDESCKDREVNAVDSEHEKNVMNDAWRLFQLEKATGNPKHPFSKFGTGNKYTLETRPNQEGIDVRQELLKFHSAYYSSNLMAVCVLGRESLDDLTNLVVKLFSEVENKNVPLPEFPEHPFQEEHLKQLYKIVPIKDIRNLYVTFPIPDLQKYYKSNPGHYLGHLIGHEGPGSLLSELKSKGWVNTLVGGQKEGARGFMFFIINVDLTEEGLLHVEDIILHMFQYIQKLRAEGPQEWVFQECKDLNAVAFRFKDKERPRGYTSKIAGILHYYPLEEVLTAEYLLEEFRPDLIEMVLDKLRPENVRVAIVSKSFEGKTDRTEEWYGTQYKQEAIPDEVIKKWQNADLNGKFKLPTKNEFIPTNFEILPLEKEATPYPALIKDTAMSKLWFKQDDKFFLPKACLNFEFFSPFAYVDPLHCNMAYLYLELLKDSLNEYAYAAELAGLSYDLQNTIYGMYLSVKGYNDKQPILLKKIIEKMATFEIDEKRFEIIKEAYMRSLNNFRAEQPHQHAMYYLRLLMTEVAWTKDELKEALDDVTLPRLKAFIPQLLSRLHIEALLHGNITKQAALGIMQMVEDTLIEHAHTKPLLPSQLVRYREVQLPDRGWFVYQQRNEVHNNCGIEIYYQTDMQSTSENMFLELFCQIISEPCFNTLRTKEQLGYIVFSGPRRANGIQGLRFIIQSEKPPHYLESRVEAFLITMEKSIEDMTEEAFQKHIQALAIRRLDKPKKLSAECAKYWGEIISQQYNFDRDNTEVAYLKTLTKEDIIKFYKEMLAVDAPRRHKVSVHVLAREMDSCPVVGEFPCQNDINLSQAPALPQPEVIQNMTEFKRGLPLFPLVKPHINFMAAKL
# Insulin-degrading enzyme [5] = target: T2, Insulin-degrading enzyme; test: cellular IDE activation of Abeta substrate cleavage – fluorescence polarization, HEK cells, dose response (AID 588439); type: functional, cell-based
# HEK293 [6] = test: membrane integrity loss in HEK cells – cell-based, fluorescence, cytotoxicity control for IDE activator project, dose response (AID 588440); type: functional; details: Homo sapiens;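 note: cytotoxicity by LDH release measuring loss of membrane integrity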
# [7] = target: Potassium voltage-gated channel subfamily KQT member 2 (Rattus norvegicus, UniProt O88943); test: blockers of KCNQ2 channel current – cell-based, automated electrophysiology, set II, rat KCNQ2, dose response (AID 588637); type: functional
# Chain of Potassium voltage-gated channel subfamily KQT member 2 (O88943 whole entry): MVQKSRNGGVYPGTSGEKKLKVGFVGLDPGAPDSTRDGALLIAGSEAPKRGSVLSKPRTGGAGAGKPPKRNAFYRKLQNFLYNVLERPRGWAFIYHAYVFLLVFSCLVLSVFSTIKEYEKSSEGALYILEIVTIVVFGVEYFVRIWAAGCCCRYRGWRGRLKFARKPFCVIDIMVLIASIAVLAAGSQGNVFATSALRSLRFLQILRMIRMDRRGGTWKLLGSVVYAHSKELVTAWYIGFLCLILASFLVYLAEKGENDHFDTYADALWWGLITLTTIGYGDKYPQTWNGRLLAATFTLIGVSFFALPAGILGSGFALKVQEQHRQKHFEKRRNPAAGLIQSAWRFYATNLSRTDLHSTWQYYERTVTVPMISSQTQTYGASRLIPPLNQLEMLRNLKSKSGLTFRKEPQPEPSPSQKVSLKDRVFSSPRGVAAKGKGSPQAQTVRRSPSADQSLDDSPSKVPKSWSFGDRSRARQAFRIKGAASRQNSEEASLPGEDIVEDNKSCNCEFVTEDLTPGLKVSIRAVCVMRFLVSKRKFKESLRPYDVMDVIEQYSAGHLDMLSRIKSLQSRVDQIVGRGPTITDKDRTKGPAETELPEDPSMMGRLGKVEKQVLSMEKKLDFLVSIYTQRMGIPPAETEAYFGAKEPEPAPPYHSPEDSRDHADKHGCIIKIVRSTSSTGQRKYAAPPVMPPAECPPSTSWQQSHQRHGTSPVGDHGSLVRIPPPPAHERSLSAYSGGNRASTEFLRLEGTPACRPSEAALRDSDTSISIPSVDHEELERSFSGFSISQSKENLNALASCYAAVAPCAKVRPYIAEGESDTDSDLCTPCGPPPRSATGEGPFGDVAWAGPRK
# Melanocortin receptor 4 = Melanocortin receptor 4 (Homo sapiens, UniProt P32245); type: functional, cell-based;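 note: Cell-based assay with luminescence read-out, confirmatory dose-response testing for agonist activity of biased ligands at MC4R; human U2OS cells with tagged receptor and beta-arrestin; potency of agonists that increase receptor coupling to beta-arrestin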
# Chain of Melanocortin receptor 4 (P32245 whole entry): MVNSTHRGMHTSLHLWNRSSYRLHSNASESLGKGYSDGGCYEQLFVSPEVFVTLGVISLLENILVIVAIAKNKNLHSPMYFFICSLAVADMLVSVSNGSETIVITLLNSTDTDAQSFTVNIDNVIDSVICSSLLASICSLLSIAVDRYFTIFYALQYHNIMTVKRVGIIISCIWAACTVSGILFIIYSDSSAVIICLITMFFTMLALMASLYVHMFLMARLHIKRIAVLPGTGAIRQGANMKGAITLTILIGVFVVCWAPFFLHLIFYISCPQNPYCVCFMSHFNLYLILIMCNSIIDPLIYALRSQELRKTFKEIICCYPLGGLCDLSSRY
# Leucine aminopeptidase = target: T3, Leucine aminopeptidase (Plasmodium falciparum 3D7, UniProt Q8IL11); test: P. falciparum M17LAP inhibitors, primary screen, biochemical, fluorogenic H-Leu-NHMec substrate, 1536-well (AID 1619); type: functional
# T3 sequence (Q8IL11 whole entry): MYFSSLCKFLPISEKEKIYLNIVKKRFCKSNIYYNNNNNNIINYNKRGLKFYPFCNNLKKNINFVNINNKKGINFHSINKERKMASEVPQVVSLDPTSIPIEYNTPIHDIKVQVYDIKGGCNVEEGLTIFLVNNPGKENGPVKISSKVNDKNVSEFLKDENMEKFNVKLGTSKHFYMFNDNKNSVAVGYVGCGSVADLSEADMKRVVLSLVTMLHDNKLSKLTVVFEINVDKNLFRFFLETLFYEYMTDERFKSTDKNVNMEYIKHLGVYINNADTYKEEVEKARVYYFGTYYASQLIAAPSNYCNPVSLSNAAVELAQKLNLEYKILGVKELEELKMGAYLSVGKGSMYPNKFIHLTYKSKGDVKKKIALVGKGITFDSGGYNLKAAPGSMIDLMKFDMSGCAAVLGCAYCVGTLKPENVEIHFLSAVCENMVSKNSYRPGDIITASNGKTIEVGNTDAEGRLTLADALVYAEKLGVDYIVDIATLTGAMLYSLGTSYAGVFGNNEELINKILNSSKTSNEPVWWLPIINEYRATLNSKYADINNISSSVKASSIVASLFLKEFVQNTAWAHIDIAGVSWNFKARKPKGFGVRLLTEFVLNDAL
# [8] = cytotoxicity toward MDA-MB-231 breast cancer cells – cell-based, CellTiter-Glo luminescence, cherry-pick, cytotoxicity control for RAD54 inhibitor project, dose response (AID 651692); type: functional
# [9] = target: T4, DNA repair protein RAD52 homolog (Homo sapiens, UniProt P43351); type: functional, biochemical
# T4 sequence (P43351 whole entry): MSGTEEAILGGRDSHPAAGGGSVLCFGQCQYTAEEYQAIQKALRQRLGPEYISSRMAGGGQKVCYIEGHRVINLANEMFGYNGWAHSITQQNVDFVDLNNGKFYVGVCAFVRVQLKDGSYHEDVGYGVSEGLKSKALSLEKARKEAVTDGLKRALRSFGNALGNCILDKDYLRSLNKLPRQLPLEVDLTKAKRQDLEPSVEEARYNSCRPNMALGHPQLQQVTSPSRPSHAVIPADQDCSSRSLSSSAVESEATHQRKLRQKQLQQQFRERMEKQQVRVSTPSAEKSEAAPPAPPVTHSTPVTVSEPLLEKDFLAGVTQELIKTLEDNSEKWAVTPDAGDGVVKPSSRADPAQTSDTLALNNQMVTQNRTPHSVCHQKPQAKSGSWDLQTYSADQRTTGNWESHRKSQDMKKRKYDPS
# [10] = target: T5, DNA repair and recombination protein RAD54-like (Homo sapiens, UniProt Q92698); test: RAD54 Holliday junction migration blockers – biochemical, fluorescence, cherry-picked samples, dose series, confirmation (AID 651657); type: functional
# T5 sequence (Q92698 whole entry): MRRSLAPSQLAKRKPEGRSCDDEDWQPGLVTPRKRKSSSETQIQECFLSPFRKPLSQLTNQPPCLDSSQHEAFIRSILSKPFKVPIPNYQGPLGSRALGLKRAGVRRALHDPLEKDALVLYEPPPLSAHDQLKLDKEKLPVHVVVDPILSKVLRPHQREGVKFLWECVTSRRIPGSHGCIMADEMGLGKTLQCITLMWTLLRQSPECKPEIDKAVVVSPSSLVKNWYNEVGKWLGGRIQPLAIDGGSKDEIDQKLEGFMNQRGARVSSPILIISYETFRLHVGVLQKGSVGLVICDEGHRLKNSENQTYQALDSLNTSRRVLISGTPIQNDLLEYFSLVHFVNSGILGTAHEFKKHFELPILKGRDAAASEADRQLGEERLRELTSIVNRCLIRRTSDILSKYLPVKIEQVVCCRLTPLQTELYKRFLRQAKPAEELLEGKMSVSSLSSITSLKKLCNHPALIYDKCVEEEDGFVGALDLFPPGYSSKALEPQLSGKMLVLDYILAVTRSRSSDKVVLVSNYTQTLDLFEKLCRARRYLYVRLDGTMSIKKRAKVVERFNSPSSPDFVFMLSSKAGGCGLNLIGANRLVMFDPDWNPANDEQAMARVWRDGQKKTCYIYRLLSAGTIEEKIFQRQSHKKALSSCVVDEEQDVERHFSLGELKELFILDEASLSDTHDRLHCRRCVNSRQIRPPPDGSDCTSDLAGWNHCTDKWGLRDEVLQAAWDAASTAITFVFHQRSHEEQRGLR
# Interleukin-8 [11] = target: T6, Interleukin-8 (Homo sapiens, UniProt P10145); test: Dose Response confirmation of uHTS small molecule hits for cystic fibrosis induced NFkb Inhibitors in a TNFa-induced IL8 counterscreen.; type: functional; details: read-out: IC50_Mean
# T6 sequence (P10145 whole entry): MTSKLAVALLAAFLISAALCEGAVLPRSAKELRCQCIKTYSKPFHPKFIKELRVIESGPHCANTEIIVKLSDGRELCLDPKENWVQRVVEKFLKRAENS
# Interleukin-8 [12] = target: T6, Interleukin-8; test: Dose Response confirmation of uHTS small molecule hits for cystic fibrosis induced NFkb Inhibitors in a PAF-induced IL8 counterscreen.; type: functional; details: read-out: IC50_Mean
# [13] = fluconazole-exposed Candida albicans growth modulators – fluorescence, retest, confirmation (AID 2467); type: functional, cell-based
# [14] = NIH-3T3 fibroblast cytotoxicity, dose response, cytotoxicity control, cell-based, fluorescence, Alamar Blue, secondary assay (AID 2327); type: functional;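 note: NIH-3T3 mouse fibroblasts cultured with fluconazole at 8 µg/mL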
# INS1 = test: INS-1E survival protection against cytokine death – cell-based, luminescence, retest, dose response (AID 449756); type: functional; details: Rattus norvegicus;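 note: cell death triggered by IL-1 beta plus TNF-alpha plus IFN-gamma mixture; protective hits raise ATP signal compared with cytokine alone wells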
# [15] = NIH3T3 cell viability loss, ATP content – CellTiter-Glo luminescence, cherry-pick, set 2, cytotoxicity control for HSP40 inhibitor project, dose response (AID 624265); type: functional
# [16] = Luminescence Cell-Based Dose Retest to Confirm Inhibitors of Cancer Stem Cells. [Related pubchem assays (depositor defined):AID2717, AID2721]; type: functional; details: Homo sapiens
# [17] = Luminescence-based counterscreen assay for KLF5 inhibitors: dose response cell-based high throughput screening assay to identify cytotoxic compounds using the IEC-6 intestinal epithelial cell line. [Related pubchem assays: 1700 (Primary screen.), 1834 (Confirmation screen.), 1858 (Summary AID.), 1905 (Counterscreen.)]; type: functional
# [18] = reduction of Shn3 3'UTR-driven luciferase in osteoblasts – cell-based, Clone20 osteoblasts, firefly luciferase, cherry-picked, dose response (AID 624132); type: functional;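 note: firefly luciferase luminescence from reporter carrying the Shn3 3'UTR in osteoblasts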
# [19] = Fluorescence-based cell-based high throughput dose response assay for inhibitors of the interaction of nucleotide-binding oligomerization domain containing 2 (NOD2) and the receptor-interacting serine-threonine kinase 2 (RIPK2).; type: functional; details: Homo sapiens
# [20] = non-specific 3'UTR reporter inhibition in Clone20-Shn3RL – cell-based, Renilla luciferase, cherry-picked, counter-screen for Shn3 inhibitor project, dose response (AID 624133); type: functional
# [21] = loss of viability in HepG2 cells – cell-based, CellTiter-Glo, cherry-picked, cytotoxicity control for Shn3 inhibitor project, dose response (AID 624134); type: functional
# Paired box protein Pax-8 = Paired box protein Pax-8 (Homo sapiens, UniProt Q06710); test: PAX8 transcriptional activity inhibition in RMG-I – RMG-I cells, luciferase, cherry-pick, dose response (AID 687027); type: functional, cell-based;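 note: luciferase reporter driven by Pax8 target thyroperoxidase promoter measured by SteadyGlo luminescence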
# Chain of Paired box protein Pax-8 (Q06710 whole entry): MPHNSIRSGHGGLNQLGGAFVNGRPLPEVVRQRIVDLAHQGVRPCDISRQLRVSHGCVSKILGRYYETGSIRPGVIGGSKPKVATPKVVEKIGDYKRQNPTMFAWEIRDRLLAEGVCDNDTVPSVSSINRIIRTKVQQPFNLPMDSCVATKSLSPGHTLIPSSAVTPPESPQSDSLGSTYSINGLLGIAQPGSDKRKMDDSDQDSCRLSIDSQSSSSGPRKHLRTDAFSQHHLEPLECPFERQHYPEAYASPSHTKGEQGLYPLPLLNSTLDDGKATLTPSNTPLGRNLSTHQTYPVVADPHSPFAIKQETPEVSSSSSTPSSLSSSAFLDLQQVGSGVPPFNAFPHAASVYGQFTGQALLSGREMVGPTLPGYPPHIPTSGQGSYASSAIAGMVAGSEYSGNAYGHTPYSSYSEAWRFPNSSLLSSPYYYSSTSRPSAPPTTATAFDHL
smiles,measurement,setting,value
COc1ccc(Oc2c(Cl)cnn(Cc3cc(-c4ccccc4)n(-c4ccccc4)n3)c2=O)cc1,IC50,[1],> 20 µM (inactive)
same,IC50,[2],> 20 µM (inactive)
CC(=O)Nc1ccc(N2S(=O)(=O)c3ccccc3S2(=O)=O)cc1,EC50,HEK293 [3],> 54.7 µM (inactive)
same,EC50,Insulin-degrading enzyme [4],> 54.7 µM (inactive)
same,EC50,Insulin-degrading enzyme [5],> 54.7 µM (inactive)
same,IC50,HEK293 [6],> 89.2 µM (inactive)
COc1cc(-c2cc(C(=O)N(C)Cc3ccccc3)c3ccccc3n2)cc(OC)c1OC,IC50,[7],0.634 µM (active)
CC(C)c1ccc(NC(=O)CSc2ncccc2C(=O)Oc2cccc([N+](=O)[O-])c2)cc1,EC50,Melanocortin receptor 4,> 89.2 µM (inactive)
same,IC50,Leucine aminopeptidase,8.47 µM (active)
CC(=O)Nc1cc(-c2cccc(C(=O)NCCN(C)C)c2)cn2c(-c3ccc(C(C)=O)cc3)cnc12,AC50,[8],31.8 µM (active)
same,AC50,[9],2.12 µM (active)
same,AC50,[10],16.1 µM (active)
O=C(Oc1cc2oc(=O)cc(-c3ccccc3)c2cc1Cl)C1CCCCC1,IC50,Interleukin-8 [11],> 79 µM (inactive)
same,IC50,Interleukin-8 [12],9.8 µM (active)
same,EC50,[13],2.32 µM (active)
same,EC50,[14],> 150 µM (inactive)
Cc1cc(-c2ccccc2)n(-c2cc(N/N=C/c3ccccc3O)ncn2)n1,AC50,INS1,4.06 µM (active)
same,AbsAC35_uM,[15],52.65 µM
same,AC50,[16],0.703 µM (active)
same,IC50,[17],9.65 µM (active)
Cc1c(C(C#N)c2ccccc2)cnn(Cc2cccc3ccccc23)c1=O (stereo unspecified),IC50,[1],3.99 µM (active)
same,IC50,[2],3.99 µM (active)
C=C1C(=O)[C@]23C[C@H]1CC[C@H]2[C@]1(C)[C@@H](OC(C)=O)CC[C@@](C)(C(=O)OC)[C@H]1C[C@@H]3OC(C)=O,AC50,[18],5.99 µM (active)
same,IC50,[19],3.1 µM (active)
same,AC50,[20],5.01 µM (active)
same,AC50,[21],13.6 µM (active)
same,AC50,Paired box protein Pax-8,3.62 µM (active)
Cc1ccc(Cn2nc(C)c(C(=O)N3CCN(S(=O)(=O)/C=C/c4ccccc4)CC3)c2C)cc1,EC50,HEK293 [3],> 54.7 µM (inactive)
same,EC50,Insulin-degrading enzyme [4],> 54.7 µM (inactive)
same,EC50,Insulin-degrading enzyme [5],> 54.7 µM (inactive)
same,IC50,HEK293 [6],> 89.2 µM (inactive)
